The values that follow come from patent US12187713B2, “Immunomodulators, compositions and methods thereof” (Betta Pharmaceuticals Co., Ltd, priority 2019, dated 2025).

pIC50: −log10 of the molar value.

A short description of data set [1]: Pharmacokinetic Assay, single oral dose 100 mg/kg (Table 11). It counts as in vivo. To be noted: mouse, C57 female mice, oral (intragastric), plasma. Here is the method: Adult C57 female mice were received to single-dose of the test compounds with […], 10% Kolliphor^@HS 15 and 80% saline as excipients, the mice (n=9) were giving oral administration (intragastric administration) with the compounds at a dose of 100 mg/kg. Time of blood collection: 15 min, 30 min, 1 h, 2 h, 4 h, 7 h, 24 h. Approximately 0.1 mL of whole blood was collected from retro-orbital venous plexus of 3 mice at each time point, and placed into tubes that contained K2-EDTA as an anticoagulant. The whole blood was centrifuged at 4° C. and 4000 rpm for 10 min. The plasma was transferred into centrifuge tubes, and stored at −20° C. until being analyzed. Concentrations of test compounds in the plasma samples were analyzed with liquid chromatography-tandem mass spectrometry (LC-MS/MS). Plasma concentration-time data of individual animals was analyzed using Microsoft Excel 2010. Non-compartmental model was introduced in concentration analysis. The pharmacokinetic parameters of the test compounds were calculated using WinNonlin (version 4.1; Pharsight) software.

The next data set has as its target PD-1/PD-L1 (Homo sapiens (Human), UniProt Q9NZQ7). The experiment in a line: PD-1/PD-L1 Binding Assay (Alphascreen). The gist of the method: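 PD-1/PD-L1 binding detected by anti-6×His acceptor and streptavidin donor beads after 120 min in the dark at 25 °C. Beforehand, the two proteins were incubated 15 min at 25 °C with inhibitor at 0.015–300 nM (1% DMSO). IC50 comes from a log concentration–response curve.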
In general terms: Bead proximity is the source of the signal in Alpha formats.

Chain of PD-1/PD-L1 (Q9NZQ7 19-238): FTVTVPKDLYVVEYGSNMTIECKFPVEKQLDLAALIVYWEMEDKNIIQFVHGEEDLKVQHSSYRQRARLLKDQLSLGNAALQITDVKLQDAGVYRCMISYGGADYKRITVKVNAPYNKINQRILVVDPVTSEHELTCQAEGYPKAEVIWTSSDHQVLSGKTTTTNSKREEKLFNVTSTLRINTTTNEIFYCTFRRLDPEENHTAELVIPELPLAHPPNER

On to `Cc1c(-c2nc3cc(CN4CCC[C@H]4C(=O)O)c(OC(F)F)cc3o2)cccc1-c1cccc(-c2nc3cc(CN4CCCC4(C)C)c(OC(F)F)cc3o2)c1C` [Example 62, ((6-(difluoromethoxy)-2-(3′-(6-(difluoromethoxy)-5-((2,2-dimethylpyrrolidin-1-yl)methyl)benzo[d]oxazol-2-yl)-2,2′-dimethyl-[1,1′-biphenyl]-3-yl)benzo[d]oxazol-5-yl)methyl)-L-proline], for which, in data set [1], the area under the curve (AUC) came to 46500 ng·h/mL, the highest level (Cmax) was 4280 ng/mL, the time to peak (Tmax) worked out at 4 h and the half-life is 9.69 h. Moreover, the pIC50 at PD-1/PD-L1 (numeric values) was 8.59.

Turning to `Cc1c(-c2nc3cc(CN4CCC(O)C4)c(OC(F)F)cc3o2)cccc1-c1cccc(-c2nc3cc(CN4CCC[C@H]4C(=O)O)c(OC(F)F)cc3o2)c1C` (stereo partly drawn) [Example 14, ((6-(difluoromethoxy)-2-(3′-(6-(difluoromethoxy)-5-((3-hydroxypyrrolidin-1-yl)methyl)benzo[d]oxazol-2-yl)-2,2′-dimethyl-[1,1′-biphenyl]-3-yl)benzo[d]oxazol-5-yl)methyl)-L-proline], in data set [1], the area under the curve (AUC) is 3450 ng·h/mL, the peak level (Cmax) was 589 ng/mL, the Tmax amounted to 1 h and the half-life was 6.2 h. The compound also showed a pIC50 on PD-1/PD-L1 (numeric values) of 8.92.

In the case of `Cc1c(-c2ccc(CN3CCCC3)c(F)c2)cccc1-c1cccc(-c2nc3cc(CN4CCC[C@H]4C(=O)O)c(OC(F)F)cc3o2)c1C` [Example 243, ((6-(difluoromethoxy)-2-(3″-fluoro-2,2′-dimethyl-4″-(pyrrolidin-1-ylmethyl)-[1,1′:3′,1″-terphenyl]-3-yl)benzo[d]oxazol-5-yl)methyl)-L-proline], in data set [1], the exposure (AUC) stood at 67400 ng·h/mL, the highest level (Cmax) was 4890 ng/mL, the time of peak concentration (Tmax) came out at 1 h and the half-life was 6.93 h. The compound further gave a pIC50 on PD-1/PD-L1 (numeric values) of 8.60.

As to `Cc1c(-c2nc3cc(CN4CCC4C)c(OC(F)F)cc3o2)cccc1-c1cccc(-c2nc3cc(CN4CCC[C@H]4C(=O)O)c(OC(F)F)cc3o2)c1C` (stereo partly drawn) [Example 36, ((6-(difluoromethoxy)-2-(3′-(6-(difluoromethoxy)-5-((2-methylazetidin-1-yl)methyl)benzo[d]oxazol-2-yl)-2,2′-dimethyl-[1,1′-biphenyl]-3-yl)benzo[d]oxazol-5-yl)methyl)-L-proline], in data set [1], the area under the curve (AUC) was 21400 ng·h/mL, the Cmax amounted to 1670 ng/mL, the time to peak (Tmax) amounted to 1 h and the half-life was 8.26 h. For the same compound, at PD-1/PD-L1 (numeric values), the pIC50 is 8.96.

Take `Cc1c(-c2nc3cc(CN4CCC[C@H]4C(=O)O)c(OC(F)F)cc3o2)cccc1-c1cccc(-c2nc3cc(CN4CCCC4)cc(F)c3o2)c1C` [Example 95, ((6-(difluoromethoxy)-2-(3′-(7-fluoro-5-(pyrrolidin-1-ylmethyl)benzo[d]oxazol-2-yl)-2,2′-dimethyl-[1,1′-biphenyl]-3-yl)benzo[d]oxazol-5-yl)methyl)-L-proline]: in data set [1], the exposure (AUC) was 22900 ng·h/mL, the highest concentration (Cmax) stood at 2030 ng/mL, the Tmax was 4 h and the half-life was 6.48 h. At PD-1/PD-L1 (numeric values), this compound gave a negative-log IC50 (pIC50) of 8.85.

As to `Cc1c(-c2nc3cc(CN4CC(N(C)C)C4)c(OC(F)F)cc3o2)cccc1-c1cccc(-c2nc3cc(CN4CCC[C@H]4C(=O)O)c(OC(F)F)cc3o2)c1C` [Example 33, ((6-(difluoromethoxy)-2-(3′-(6-(difluoromethoxy)-5-((3-(dimethylamino)azetidin-1-yl)methyl)benzo[d]oxazol-2-yl)-2,2′-dimethyl-[1,1′-biphenyl]-3-yl)benzo[d]oxazol-5-yl)methyl)-L-proline], in data set [1], the AUC turned out to be 8920 ng·h/mL, the maximum concentration (Cmax) came out at 727 ng/mL, the Tmax was 4 h and the half-life was 11 h. The compound also had a pIC50 on PD-1/PD-L1 (numeric values) of 8.82.

Turning to `Cc1c(-c2ccc(CN3CCCC3)c(OC(F)F)c2)cccc1-c1cccc(-c2nc3cc(CN4CCC[C@H]4C(=O)O)c(OC(F)F)cc3o2)c1C` [Example 244, ((6-(difluoromethoxy)-2-(3″-(difluoromethoxy)-2,2′-dimethyl-4″-(pyrrolidin-1-ylmethyl)-[1,1′:3′,1″-terphenyl]-3-yl)benzo[d]oxazol-5-yl)methyl)-L-proline], in data set [1], the AUC stood at 78100 ng·h/mL, the concentration peaked (Cmax) at 5740 ng/mL, the time to peak (Tmax) came to 2 h and the half-life is 7.01 h. This compound gave a pIC50 at PD-1/PD-L1 (numeric values) of 8.70.

Take `CNCc1cc2nc(-c3cccc(-c4cccc(-c5nc6cc(CN7CCC[C@H]7C(=O)O)c(OC(F)F)cc6o5)c4C)c3C)oc2cc1OC(F)F` [Example 15, ((6-(difluoromethoxy)-2-(3′-(6-(difluoromethoxy)-5-((methylamino)methyl)benzo[d]oxazol-2-yl)-2,2′-dimethyl-[1,1′-biphenyl]-3-yl)benzo[d]oxazol-5-yl)methyl)-L-proline]: in data set [1], the AUC came to 5710 ng·h/mL, the Cmax was 931 ng/mL, the Tmax turned out to be 1 h and the half-life was 9.83 h. Besides, the pIC50 at PD-1/PD-L1 (numeric values) is 9.30.

Regarding `Cc1c(-c2nc3cc(CN4CCC[C@H]4CO)c(OC(F)F)cc3o2)cccc1-c1cccc(-c2nc3cc(CN4CCC[C@H]4C(=O)O)c(OC(F)F)cc3o2)c1C` [Example 12, ((6-(difluoromethoxy)-2-(3′-(6-(difluoromethoxy)-5-(((S)-2-(hydroxymethyl)pyrrolidin-1-yl)methyl)benzo[d]oxazol-2-yl)-2,2′-dimethyl-[1,1′-biphenyl]-3-yl)benzo[d]oxazol-5-yl)methyl)-L-proline], in data set [1], the AUC was determined as 14500 ng·h/mL, the highest concentration (Cmax) was determined as 1380 ng/mL, the Tmax came to 2 h and the half-life was 7.97 h. The pIC50 on PD-1/PD-L1 (numeric values) is 8.96.

As for `Cc1c(-c2nc3cc(CN4CC[C@H]4CO)c(OC(F)F)cc3o2)cccc1-c1cccc(-c2nc3cc(CN4CCC[C@H]4C(=O)O)c(OC(F)F)cc3o2)c1C` [Example 31, ((6-(difluoromethoxy)-2-(3′-(6-(difluoromethoxy)-5-(((S)-2-(hydroxymethyl)azetidin-1-yl)methyl)benzo[d]oxazol-2-yl)-2,2′-dimethyl-[1,1′-biphenyl]-3-yl)benzo[d]oxazol-5-yl)methyl)-L-proline], in data set [1], the area under the curve (AUC) was 6600 ng·h/mL, the concentration peaked (Cmax) at 1000 ng/mL, the time to peak (Tmax) came out at 1 h and the half-life is 9.81 h. Further, the negative-log IC50 (pIC50) at PD-1/PD-L1 (numeric values) was 9.30.

Turning to `Cc1c(-c2nc3ccc(CN4CCCC4)cc3o2)cccc1-c1cccc(-c2nc3cc(CN4CCC[C@H]4C(=O)O)c(OC(F)F)cc3o2)c1C` [Example 108, ((6-(difluoromethoxy)-2-(2,2′-dimethyl-3′-(6-(pyrrolidin-1-ylmethyl)benzo[d]oxazol-2-yl)-[1,1′-biphenyl]-3-yl)benzo[d]oxazol-5-yl)methyl)-L-proline], in data set [1], the area under the curve (AUC) stood at 10100 ng·h/mL, the peak concentration (Cmax) was found to be 713 ng/mL, the time to peak (Tmax) is 1 h and the half-life is 21.7 h. At PD-1/PD-L1 (range symbols), the pIC50 is 8.30 to 10.00.

In the case of `COC(=O)[C@@H]1CCCN1Cc1cc2nc(-c3cccc(-c4cccc(-c5nc6cc(CN7CCC[C@H]7C(=O)O)c(OC(F)F)cc6o5)c4C)c3C)oc2cc1OC(F)F` [Example 3, ((6-(difluoromethoxy)-2-(3′-(6-(difluoromethoxy)-5-(((S)-2-(methoxycarbonyl)pyrrolidin-1-yl)methyl)benzo[d]oxazol-2-yl)-2,2′-dimethyl-[1,1′-biphenyl]-3-yl)benzo[d]oxazol-5-yl)methyl)-L-proline], in data set [1], the area under the curve (AUC) came to 461 ng·h/mL, the Cmax worked out at 374 ng/mL, the time to peak (Tmax) was 1 h and the half-life was 0.39 h. In addition, the pIC50 on PD-1/PD-L1 (numeric values) was 7.05.

Take `COC[C@@H]1CCCN1Cc1cc2nc(-c3cccc(-c4cccc(-c5nc6cc(CN7CCC[C@H]7C(=O)O)c(OC(F)F)cc6o5)c4C)c3C)oc2cc1OC(F)F` [Example 63, ((6-(difluoromethoxy)-2-(3′-(6-(difluoromethoxy)-5-(((S)-2-(methoxymethyl)pyrrolidin-1-yl)methyl)benzo[d]oxazol-2-yl)-2,2′-dimethyl-[1,1′-biphenyl]-3-yl)benzo[d]oxazol-5-yl)methyl)-L-proline]: in data set [1], the AUC came to 43700 ng·h/mL, the concentration peaked (Cmax) at 2920 ng/mL, the Tmax worked out at 1 h and the half-life was 5.8 h. Moreover, on PD-1/PD-L1 (numeric values), the pIC50 was 8.24.

For `Cc1c(Nc2nccc3cc(CN4CCC(O)C4)cnc23)cccc1-c1cccc(-c2nc3cc(CN4CCC[C@H]4C(=O)O)c(OC(F)F)cc3o2)c1C` (stereo partly drawn) [Example 175, ((6-(difluoromethoxy)-2-(3′-((3-((3-hydroxypyrrolidin-1-yl)methyl)-1,7-naphthyridin-8-yl)amino)-2,2′-dimethyl-[1,1′-biphenyl]-3-yl)benzo[d]oxazol-5-yl)methyl)-L-proline], in data set [1], the area under the curve (AUC) was 19900 ng·h/mL, the concentration peaked (Cmax) at 1630 ng/mL, the Tmax came out at 2 h and the half-life was 3.63 h. On PD-1/PD-L1 (numeric values), this compound gave a negative-log IC50 (pIC50) of 8.47.

Broadly, the AUC is concentration integrated over time. Read a high AUC as high exposure. For orientation: Cmax means the maximum level reached in the sampled fluid or tissue. In general, Tmax refers to the time at which the peak concentration occurs. As a reminder, the half-life is the time in which the quantity being followed falls by half. A high value points to slow loss. What is called pIC50 is the IC50 on a negative log10 scale, so that one unit is a factor of ten. Lower therefore signals a large IC50.
